From ChEMBL document CHEMBL3853339, “Bioactive phenols as potential neuroinflammation inhibitors from the leaves of Xanthoceras sorbifolia Bunge” (Bioorg Med Chem Lett, 2016)

Experiments:
[1] = Cytotoxicity against LPS-activated human BV2 cells assessed as cell viability at 100 uM after 24 hrs by MTT assay (reference value: 98.03 to 98.84%); format: toxicity, cell-based, Mus musculus, BV-2; conditions: read-out: Activity
[2] = Cytotoxicity against LPS-activated human BV2 cells assessed as cell viability at 1 uM after 24 hrs by MTT assay (reference value: 98.03 to 98.84%); format: toxicity, cell-based, Mus musculus, BV-2; conditions: read-out: Activity
[3] = Cytotoxicity against LPS-activated […] cells assessed as cell viability at 10 uM after 24 hrs by MTT assay (reference value: 98.03 to 98.84%); format: toxicity, cell-based, Mus musculus, BV-2; conditions: read-out: Activity
[4] = Cytotoxicity against LPS-activated […] cells assessed as cell viability at 30 uM after 24 hrs by MTT assay (reference value: 98.03 to 98.84%); format: toxicity, cell-based, Mus musculus, BV-2; conditions: read-out: Activity
[5] = Antineuroinflammatory activity in […] cells assessed as inhibition of LPS-induced NO production after 24 hrs in presence of LPS by Griess reaction; format: functional, cell-based; conditions: BV-2, 24 h

Row | SMILES | viability at 24 h, 100 µM [1] | viability at 24 h, 1 µM [2] | viability at 24 h, 10 µM [3] | viability at 24 h, 30 µM [4] | IC50 [5]
1 | Oc1cc(O)c2c(c1)O[C@H](c1ccc(O)c(O)c1)[C@H](O)C2 [(-)-EPICATECHIN] | 93.2% | 84.4% | 87.6% | 88% | 47.4 µM
2 | C[C@@H]1O[C@@H](Oc2c(-c3ccc(O)c(O)c3)oc3cc(O)cc(O)c3c2=O)[C@H](O)[C@H](O)[C@H]1O [QUERCITRIN] | 96.5% | 92% | 91% | 99.3% | > 100 µM
3 | CN(C)c1ccc(O)c2c1C[C@H]1C[C@H]3[C@H](N(C)C)C(O)=C(C(N)=O)C(=O)[C@@]3(O)C(O)=C1C2=O [MINOCYCLINE] | – | – | – | – | 37 µM
4 | C[C@@H]1O[C@@H](Oc2c(-c3cc(O)c(O)c(O)c3)oc3cc(O)cc(O)c3c2=O)[C@H](O)[C@H](O)[C@H]1O | 107% | 97.9% | 99.5% | 99.3% | > 100 µM
5 | COc1cc(-c2oc3cc(O)cc(O)c3c(=O)c2O[C@@H]2O[C@H](CO[C@@H]3O[C@@H](C)[C@H](O)[C@@H](O)[C@H]3O)[C@@H](O)[C@H](O)[C@H]2O)ccc1O [NARCISSIN] | 88.8% | 95.1% | 89.5% | 88.7% | > 100 µM
6 | COc1cc([C@H]2OC[C@H]3[C@@H]2CO[C@@H]3c2cc(OC)c(O[C@@H]3O[C@H](CO)[C@@H](O)[C@H](O)[C@H]3O)c(OC)c2)cc(OC)c1O | 94.4% | 92.9% | 87.4% | 95.4% | 3.08 µM
7 | O=C(O)/C=C\c1ccc(O[C@@H]2O[C@H](CO)[C@@H](O)[C@H](O)[C@H]2O)cc1 | 90% | 90.9% | 95.4% | 93% | > 100 µM
8 | COc1cc(/C=C/C(=O)O)cc(OC)c1O[C@@H]1O[C@H](CO)[C@@H](O)[C@H](O)[C@H]1O | 95.6% | 94.5% | 96.3% | 93.1% | > 100 µM
9 | O=C(O)/C=C/c1ccc(O[C@@H]2O[C@H](CO)[C@@H](O)[C@H](O)[C@H]2O)cc1 | 94.7% | 101% | 98.4% | 101% | 9.08 µM
10 | C[C@@H]1O[C@@H](OC[C@H]2O[C@@H](Oc3c(-c4ccc(O)cc4)oc4cc(O)cc(O)c4c3=O)[C@H](O)[C@@H](O)[C@@H]2O)[C@H](O)[C@H](O)[C@H]1O [NICOTIFLOROSIDE] | 113% | 98.7% | 110% | 92.1% | 88 µM
11 | C[C@@H]1O[C@@H](OC[C@H]2O[C@@H](Oc3c(-c4cc(O)c(O)c(O)c4)oc4cc(O)cc(O)c4c3=O)[C@H](O)[C@@H](O)[C@@H]2O)[C@H](O)[C@H](O)[C@H]1O | 86.9% | 92.2% | 87.1% | 86% | 74.7 µM
12 | O=c1c(O)c(-c2cc(O)c(O)c(O)c2)oc2cc(O)cc(O)c12 [MYRICETIN] | 116% | 97.7% | 98.4% | 109% | > 100 µM
13 | COc1cc([C@@H]2OC[C@H]3[C@@H]2CO[C@H]3c2cc(OC)c(O[C@@H]3O[C@H](CO)[C@@H](O)[C@H](O)[C@H]3O)c(OC)c2)cc(OC)c1O[C@@H]1O[C@H](CO)[C@@H](O)[C@H](O)[C@H]1O | 94.9% | 100% | 97.5% | 100% | > 100 µM
14 | COc1cc([C@@H]2OC[C@H]3[C@@H]2CO[C@@H]3c2cc(OC)c(O[C@@H]3O[C@H](CO)[C@@H](O)[C@H](O)[C@H]3O)c(OC)c2)cc(OC)c1O | 100% | 92.4% | 91.6% | 102% | > 100 µM
15 | Oc1cc(O)c2c(c1)O[C@H](c1cc(O)c(O)c(O)c1)[C@@H](O)C2 [GALLOCATECHIN] | 82.6% | 89.5% | 94.2% | 89.5% | > 100 µM
16 | C[C@@H]1O[C@@H](OC[C@H]2O[C@@H](Oc3c(-c4ccc(O)c(O)c4)oc4cc(O)cc(O)c4c3=O)[C@H](O)[C@@H](O)[C@@H]2O)[C@H](O)[C@H](O)[C@H]1O [RUTIN] | 95% | 97.2% | 94.6% | 91% | –
17 | O=c1c(O[C@@H]2O[C@H](CO)[C@@H](O)[C@H](O)[C@H]2O[C@@H]2O[C@H](CO)[C@@H](O)[C@H](O)[C@H]2O)c(-c2ccc(O)c(O)c2)oc2cc(O)cc(O)c12 | 108% | 84.5% | 87.7% | 96.5% | > 100 µM
18 | O=c1c(O)c(-c2ccc(O)c(O)c2)oc2cc(O)cc(O)c12 [QUERCETIN] | 99.7% | 87.5% | 90.7% | 96.9% | 39.5 µM
19 | Oc1cc(O)c2c(c1)O[C@]1(c3ccc(O)c(O)c3)Oc3cc(O)c4c(c3[C@H]2[C@@H]1O)O[C@@]1(c2ccc(O)c(O)c2)Oc2cc(O)c3c(c2[C@@H]4[C@H]1O)O[C@@H](c1ccc(O)c(O)c1)[C@H](O)C3 | 112% | 94.4% | 97.3% | 104% | > 100 µM
20 | O=c1c(O[C@@H]2O[C@H](CO)[C@@H](O)[C@H](O)[C@H]2O)c(-c2ccc(O)c(O)c2)oc2cc(O)cc(O)c12 [ISOQUERCETIN] | 85.2% | 101% | 98.4% | 87.7% | 13.4 µM
21 | Oc1cc(O)c2c(c1)O[C@H](c1cc(O)c(O)c(O)c1)[C@H](O)C2 [EPIGALLOCATECHIN] | 94.6% | 95.3% | 96.4% | 100% | > 100 µM
22 | COc1cc(CO)cc(OC)c1O[C@@H]1O[C@H](CO)[C@@H](O)[C@H](O)[C@H]1O | 87% | 91.1% | 94.7% | 90.7% | > 100 µM
23 | Oc1cc(O)c2c(c1)O[C@H](c1ccc(O)c(O)c1)[C@@H](O)C2 [CIANIDANOL] | 117% | 81.5% | 88.3% | 102% | 9.52 µM
